Source: patent US20020169157A1, “Selective protein tyrosine phosphatatase inhibitors” (priority 2000, published 2002)

Assays:
PP2B = molecular target: T1, PP2B (Bos taurus, UniProt P48452); assay: Inhibition constant determination, selectivity panel: PP2B (pNPP hydrolysis); type: biochemical, Bovine; details: competitive Ki, pNPP substrate, TRIS-HCl pH 8.6 buffer; read-out: Phosphatase Inhibition Constants (Kic) PP2B
T1 construct: purchased Sigma C1907
Protocol: (§1) Protein tyrosine phosphatase 1B activity was determined by measuring the rate of hydrolysis of a surrogate substrate, p-nitrophenyl phosphate (aka pNPP, C1907 Sigma, St. Louis, Mo.). The assay was carried out at room temperature in 96 well polypropylene or polyethylene plates in a total volume of 100 μL per well. Appropriate dilutions of the compounds were made in DMSO and then diluted ten fold with water. […] The reaction was initiated by adding 50 μL of diluted PTP1B diluted in 2× assay buffer containing 50 mM HEPES (pH=7.5), 300 mM NaCl and 0.2 mg/mL BSA. The phosphatase activity results in the formation of the colored product p-nitrophenol (pNP) which was continuously monitored at 405 nm every 30 seconds for 15 minutes using an appropriate plate reader. The absorbance at 405 nm was converted to nanomoles of pNP using a standard curve and the initial rate of pNP formation was calculated. […] The ratio of the apparent Km/Vmax vs. inhibitor concentration was plotted and the competitive Ki was calculated by linear regression to be the negative x-intercept. The uncompetitve Ki was similarly calculated from the x-intercept of the plot of the reciprocal of the apparent Vmax versus the inhibitor concentration. […]
(§2) The Kic and Kiu values are calculated as described for PTP1B. […]

CD45 = molecular target: T2, CD45 (Homo sapiens, UniProt P08575); assay: Inhibition constant determination, selectivity panel: CD45 (pNPP hydrolysis); type: biochemical; details: competitive Ki, pNPP substrate; read-out: Phosphatase Inhibition Constants (Kic) CD45
T2 construct: purchased Biomol Research Laboratories SE-135
T2 sequence (P08575 609-1306 limits assumed): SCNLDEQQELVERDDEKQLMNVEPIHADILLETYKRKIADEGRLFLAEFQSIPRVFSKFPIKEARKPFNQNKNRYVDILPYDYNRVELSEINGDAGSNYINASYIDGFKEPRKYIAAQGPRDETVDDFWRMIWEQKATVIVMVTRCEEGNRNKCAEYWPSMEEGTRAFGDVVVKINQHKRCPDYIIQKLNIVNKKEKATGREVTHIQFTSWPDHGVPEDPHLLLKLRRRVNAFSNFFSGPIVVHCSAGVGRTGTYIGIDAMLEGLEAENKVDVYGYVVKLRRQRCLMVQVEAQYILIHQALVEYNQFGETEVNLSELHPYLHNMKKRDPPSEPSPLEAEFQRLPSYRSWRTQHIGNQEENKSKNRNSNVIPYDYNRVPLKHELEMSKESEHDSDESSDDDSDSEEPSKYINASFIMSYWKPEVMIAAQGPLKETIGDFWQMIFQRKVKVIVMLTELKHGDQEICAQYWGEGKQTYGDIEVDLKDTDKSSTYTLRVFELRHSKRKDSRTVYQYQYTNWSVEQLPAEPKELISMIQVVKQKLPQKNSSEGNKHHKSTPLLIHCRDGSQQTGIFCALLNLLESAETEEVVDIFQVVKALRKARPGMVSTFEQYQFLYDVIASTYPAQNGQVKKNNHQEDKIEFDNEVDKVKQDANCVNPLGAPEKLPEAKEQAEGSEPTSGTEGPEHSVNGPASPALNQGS
Protocol: as §1, §2

LAR = molecular target: T3, LAR (Homo sapiens, UniProt P10586); assay: Inhibition constant determination, selectivity panel: LAR (pNPP hydrolysis); type: biochemical; details: competitive Ki, pNPP substrate; read-out: Phosphatase Inhibition Constants (Kic) LAR
T3 construct: purchased New England Biolabs P0750L
T3 sequence (P10586 1301-1639 limits assumed): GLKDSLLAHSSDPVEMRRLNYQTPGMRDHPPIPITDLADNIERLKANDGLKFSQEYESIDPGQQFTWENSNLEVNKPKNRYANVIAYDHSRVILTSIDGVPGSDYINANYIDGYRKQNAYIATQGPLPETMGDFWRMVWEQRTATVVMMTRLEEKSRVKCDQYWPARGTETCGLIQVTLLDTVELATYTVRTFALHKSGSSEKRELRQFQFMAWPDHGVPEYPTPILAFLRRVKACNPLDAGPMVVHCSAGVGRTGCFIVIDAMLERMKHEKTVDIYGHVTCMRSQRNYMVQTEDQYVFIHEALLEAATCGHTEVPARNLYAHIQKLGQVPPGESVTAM
Protocol: as §1, §2

SHP-2 (full length) = molecular target: T4, SHP-2 (full length) (Homo sapiens, UniProt Q06124); assay: Inhibition constant determination, selectivity panel: SHP-2 (pNPP hydrolysis); type: biochemical; details: competitive Ki, pNPP substrate; read-out: Phosphatase Inhibition Constants (Kic) SHP-2
T4 construct: SHP-2 (full length) was expressed in from E. coli; made in house; host or cells: E. coli
T4 sequence (Q06124 1-593): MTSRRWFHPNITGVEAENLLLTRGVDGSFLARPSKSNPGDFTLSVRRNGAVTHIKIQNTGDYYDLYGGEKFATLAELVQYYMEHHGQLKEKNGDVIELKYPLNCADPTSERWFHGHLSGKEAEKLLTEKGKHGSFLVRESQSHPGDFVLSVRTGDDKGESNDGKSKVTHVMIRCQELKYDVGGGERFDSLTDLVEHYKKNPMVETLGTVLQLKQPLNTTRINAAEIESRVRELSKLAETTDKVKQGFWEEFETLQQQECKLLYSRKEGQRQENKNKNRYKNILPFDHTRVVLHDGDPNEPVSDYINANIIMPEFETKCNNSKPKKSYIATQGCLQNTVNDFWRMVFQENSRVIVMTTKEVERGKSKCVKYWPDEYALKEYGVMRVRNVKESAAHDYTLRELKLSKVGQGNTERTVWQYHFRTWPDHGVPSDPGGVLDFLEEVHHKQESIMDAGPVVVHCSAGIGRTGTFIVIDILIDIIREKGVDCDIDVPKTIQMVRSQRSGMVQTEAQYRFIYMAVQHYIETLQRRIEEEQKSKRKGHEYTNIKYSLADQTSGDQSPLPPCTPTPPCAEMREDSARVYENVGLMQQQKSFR
Protocol: (§3) Protein tyrosine phosphatase 1B activity was determined by measuring the rate of hydrolysis of a surrogate substrate, p-nitrophenyl phosphate (aka pNPP, C1907 Sigma, St. Louis, Mo.). The assay was carried out at room temperature in 96 well polypropylene or polyethylene plates in a total volume of 100 μL per well. Appropriate dilutions of the compounds were made in DMSO and then diluted ten fold with water. […] The reaction was initiated by adding 50 μL of diluted PTP1B diluted in 2× assay buffer containing 50 mM HEPES (pH=7.5), 300 mM NaCl and 0.2 mg/mL BSA. The phosphatase activity results in the formation of the colored product p-nitrophenol (pNP) which was continuously monitored at 405 nm every 30 seconds for 15 minutes using an appropriate plate reader. The absorbance at 405 nm was converted to nanomoles of pNP using a standard curve and the initial rate of pNP formation was calculated. […] The ratio of the apparent Km/Vmax vs. inhibitor concentration was plotted and the competitive Ki was calculated by linear regression to be the negative x-intercept. The uncompetitve Ki was similarly calculated from the x-intercept of the plot of the reciprocal of the apparent Vmax versus the inhibitor concentration.
as §2

[1] = molecular target: T5, CDC25c (fusion with glutathione-S-transferase) (Homo sapiens, UniProt P30307); assay: Inhibition constant determination, selectivity panel: Cdc25c (pNPP hydrolysis); type: biochemical; details: competitive Ki, pNPP substrate; read-out: Phosphatase Inhibition Constants (Kic) Cdc25c
T5 construct: GST (glutathione-S-transferase); made in house; host or cells: E. coli
T5 sequence (P30307 1-473): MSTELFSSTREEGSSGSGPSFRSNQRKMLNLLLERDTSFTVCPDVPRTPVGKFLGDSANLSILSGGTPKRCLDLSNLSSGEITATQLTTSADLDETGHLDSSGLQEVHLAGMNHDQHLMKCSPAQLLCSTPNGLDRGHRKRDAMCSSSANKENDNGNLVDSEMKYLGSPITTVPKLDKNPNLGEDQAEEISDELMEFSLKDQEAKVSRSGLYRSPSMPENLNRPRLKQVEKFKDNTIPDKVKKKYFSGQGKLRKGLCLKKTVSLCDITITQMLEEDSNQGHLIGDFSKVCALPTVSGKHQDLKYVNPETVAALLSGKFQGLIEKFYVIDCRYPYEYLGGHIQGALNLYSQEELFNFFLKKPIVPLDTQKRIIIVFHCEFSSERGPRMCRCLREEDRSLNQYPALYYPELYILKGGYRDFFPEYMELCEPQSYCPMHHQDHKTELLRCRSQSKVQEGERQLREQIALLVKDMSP
Protocol: as §3, §2

TC-PTP = molecular target: T6, TC-PTP (Homo sapiens, UniProt P17706); assay: Inhibition constant determination, selectivity panel: TCPTP (pNPP hydrolysis); type: biochemical; details: for Ki: competitive Ki, pNPP substrate, +/− S.D., read-out: Phosphatase Inhibition Constants (Kic) TC-PTP; for selective for PTP1B over TCPTP: from Kic values of Table 1
T6 construct: chromatography of TCPTP (amino acid residues 1-283) was on Q-Sepharose-FF
T6 sequence (P17706 1-283): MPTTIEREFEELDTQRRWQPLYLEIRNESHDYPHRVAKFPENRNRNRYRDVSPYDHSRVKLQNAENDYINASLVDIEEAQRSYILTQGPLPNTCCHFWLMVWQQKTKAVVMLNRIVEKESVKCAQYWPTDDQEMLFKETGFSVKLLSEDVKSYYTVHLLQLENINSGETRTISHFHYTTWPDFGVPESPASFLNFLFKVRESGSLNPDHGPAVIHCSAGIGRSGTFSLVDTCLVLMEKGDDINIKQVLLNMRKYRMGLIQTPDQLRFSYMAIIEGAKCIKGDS
Protocol: Protein tyrosine phosphatase 1B activity was determined by measuring the rate of hydrolysis of a surrogate substrate, p-nitrophenyl phosphate (aka pNPP, C1907 Sigma, St. Louis, Mo.). The assay was carried out at room temperature in 96 well polypropylene or polyethylene plates in a total volume of 100 μL per well. Appropriate dilutions of the compounds were made in DMSO and then diluted ten fold with water. […] The reaction was initiated by adding 50 μL of diluted PTP1B diluted in 2× assay buffer containing 50 mM HEPES (pH=7.5), 300 mM NaCl and 0.2 mg/mL BSA. The phosphatase activity results in the formation of the colored product p-nitrophenol (pNP) which was continuously monitored at 405 nm every 30 seconds for 15 minutes using an appropriate plate reader. The absorbance at 405 nm was converted to nanomoles of pNP using a standard curve and the initial rate of pNP formation was calculated. For each concentration of test compound (inhibitor) or DMSO control, the initial rates are used to fit the rectangular hyperbola of Michaelis-Menten by non-linear regression analysis (GraphPad Software Prism 3.0). The ratio of the apparent Km/Vmax vs. inhibitor concentration was plotted and the competitive Ki was calculated by linear regression to be the negative x-intercept. The uncompetitve Ki was similarly calculated from the x-intercept of the plot of the reciprocal of the apparent Vmax versus the inhibitor concentration.
TCPTP used was either obtained commercially (catalog#752L New England Biolabs, 32 Tozer Rd, Beverly, Mass.) or as described for PTP1B. The purification of TCPTP differed from the purification of PTP1b in that chromatography of TCPTP (amino acid residues 1-283) was on Q-Sepharose-FF (Amersham Pharmacia Biotech) in 50 mM TRIS-HC1, pH 7.5, 2 mM DTT, 10% (v/v) glycerol, and was eluted with a 3 CV gradient of 0-300 mM NaCl in the same buffer. Fractions which contained TCPTP were selected and pooled based on SDS-PAGE. They were dialyzed versus 40 mM sodium phosphate, pH 7.5, 1 M ammonium sulfate, 10% (v/v) glycerol, 2 mM DTT, 1 mM sodium azide, applied to Phenyl Sepharose FF (Amersham Pharmacia Biotech), washed with 2.5 CV of the same buffer, and eluted with a 7 CV gradient of 1M to 0M NaCl in the same buffer. Fractions were assayed, pooled, frozen and stored as described for PTP1B.
The Kic and Kiu values are calculated as described for PTP1B. The assays were performed as described for PTP-1B except for the following changes. All the phosphatases except PP2B use the same 2× assay buffer as PTP1B. […] The concentrations of pNPP present in 40 ul were the same for TCPTP, CD45, LAR and PTP1B.

[2] = molecular target: T7, protein tyrosine phosphatase 1B (PTP1B, amino acid residues 1-321) (Homo sapiens, UniProt P18031); assay: Inhibition constant determination for protein tyrosine phosphatase 1B (pNPP hydrolysis); type: biochemical; details: competitive Ki, pNPP substrate, +/− S.D.; read-out: Phosphatase Inhibition Constants (Kic) PTP1B
T7 construct: PTP1B, amino acid residues 1-321; made in house; host or cells: E. coli BL21 (DE3)
T7 sequence (P18031 1-321): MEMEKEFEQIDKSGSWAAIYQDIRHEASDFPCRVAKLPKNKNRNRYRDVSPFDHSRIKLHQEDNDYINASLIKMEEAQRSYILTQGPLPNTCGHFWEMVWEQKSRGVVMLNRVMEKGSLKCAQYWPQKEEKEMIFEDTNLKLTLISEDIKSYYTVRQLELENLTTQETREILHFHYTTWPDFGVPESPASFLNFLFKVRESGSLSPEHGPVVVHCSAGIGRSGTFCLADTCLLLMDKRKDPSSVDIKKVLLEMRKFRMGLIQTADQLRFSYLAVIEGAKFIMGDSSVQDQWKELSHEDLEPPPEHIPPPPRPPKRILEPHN
Protocol: Protein tyrosine phosphatase 1B activity was determined by measuring the rate of hydrolysis of a surrogate substrate, p-nitrophenyl phosphate (aka pNPP, C1907 Sigma, St. Louis, Mo.). The assay was carried out at room temperature in 96 well polypropylene or polyethylene plates in a total volume of 100 μL per well. Appropriate dilutions of the compounds were made in DMSO and then diluted ten fold with water. […] The reaction was initiated by adding 50 μL of diluted PTP1B diluted in 2× assay buffer containing 50 mM HEPES (pH=7.5), 300 mM NaCl and 0.2 mg/mL BSA. […] For each concentration of test compound (inhibitor) or DMSO control, the initial rates are used to fit the rectangular hyperbola of Michaelis-Menten by non-linear regression analysis (GraphPad Software Prism 3.0). The ratio of the apparent Km/Vmax vs. inhibitor concentration was plotted and the competitive Ki was calculated by linear regression to be the negative x-intercept. The uncompetitve Ki was similarly calculated from the x-intercept of the plot of the reciprocal of the apparent Vmax versus the inhibitor concentration.

T1 sequence (P63099 2-170 partner limits assumed, other chains not shown): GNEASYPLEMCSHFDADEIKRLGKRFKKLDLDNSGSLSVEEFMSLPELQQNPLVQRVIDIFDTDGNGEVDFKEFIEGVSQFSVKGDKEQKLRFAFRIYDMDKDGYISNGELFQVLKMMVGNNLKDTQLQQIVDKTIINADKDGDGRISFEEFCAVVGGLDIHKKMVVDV

Row | Compound | Ki (PP2B) | Ki (CD45) | Ki (LAR) | Ki (SHP-2 (full length)) | Ki [1] | Ki (TC-PTP) | selective for PTP1B over TCPTP (TC-PTP) | Ki [2]
1 | CCc1cc(C[C@H](NC(C)=O)C(=O)NCCCCC(=O)N[C@@H](CCSC)C(=O)O)ccc1N(C(=O)C(=O)O)c1ccccc1C(=O)O [Example 3, N-{5-[(N-acetyl-4-[(carboxycarbonyl)(2-carboxyphenyl)amino]-3-ethylphenylalanyl)amino]pentanoyl}-L-methionine] | > 200 µM | > 200 µM | 5 µM | 17 µM | > 200 µM | – | – | –
2 | CCc1cc(C[C@H](NC(C)=O)C(=O)NCCCCOc2cccc(O)c2C(=O)OC)ccc1N(C(=O)C(=O)O)c1ccccc1C(=O)O [Example 13, Methyl 2-{4-[(N-acetyl-4-[(carboxycarbonyl)(2-carboxyphenyl)amino]-3-ethylphenylalanyl)amino]butoxy}-6-hydroxybenzoate] | > 200 µM | > 200 µM | 4.6 µM | 14.2 µM | > 200 µM | 0.57 µM | – | –
3 | CCC(CN(C(=O)C(=O)O)c1ccc(C[C@H](NC(=O)OC(C)(C)C)C(=O)NCCCCOc2cccc(O)c2C(=O)OC)cc1)C(=O)O (stereo partly drawn) [Example 36, Methyl 2-(4-{[N-(tert-butoxycarbonyl)-4-[(2-carboxybutyl)(carboxycarbonyl)amino]phenylalanyl]amino}butoxy)-6-hydroxybenzoate] | – | – | – | – | – | 7.9 µM | at least 6 fold | 1.3 µM
4 | COC(=O)c1c(O)cccc1OCCCCNC(=O)[C@H](Cc1ccc(NC(=O)C(=O)O)cc1)NC(=O)OC(C)(C)C [Example 45, Methyl 2-(4-{[4-(carboxycarbonyl)amino-N-(tert-butoxycarbonyl)phenylalanyl]amino}butoxy)-6-hydroxybenzoate] | – | – | – | – | – | 141 µM | – | –
5 | COC(=O)c1c(O)cccc1OCCCCNC(=O)CCc1ccc(NC(=O)C(=O)O)c(C(=O)O)c1 [Example 52, 2-[(carboxycarbonyl)amino]-5-[3-({4-[3-hydroxy-2-(methoxycarbonyl)phenoxy]butyl}amino)-3-oxopropyl]benzoic acid] | – | – | – | – | – | 38.2 µM | at least 14 fold | 2.7 µM
